Data: patent US11945816B2, “Inhibitors of EGFR and/or HER2 and methods of use” (Dana-Farber Cancer Institute, Inc., priority 2017, dated 2024)

Key:
Format in all cases: cell-based
[1] = target: T1, EGFR InsASV (V769_D770insASV) transformed Ba/F3 cells (Homo sapiens, UniProt P00533, INS769ASV); assay: Proliferation inhibition assay, EGFR InsASV transformed Ba/F3 cells; details: MTS assay, 72 hours
T1 construct: expressed in transfected cells; host or cells: Ba/F3
Method: (§1) Cell growth inhibition can be assessed by MTS assay or by Cell Titer Glo Luminescent Cell viability assay (Promega®). Cells are seeded and grow in culture plates before they are exposed to representative compounds of the application for various duration. The viability of the cells are then assessed. […] The growth curves can be fitted using a nonlinear regression model with sigmoidal dose response.
(§2) Cell growth inhibition was assessed by MTS assay for Ba/F3, DFCI58-229, and DFCI127c cells, or by Cell Titer Glo Luminescent Cell viability assay (Promega®) for DFC1362JC cells, 3000 Ba/F3 cells were seeded for per well in 96-well plates, and were exposed to representative compounds of the application (3.3 nM to 10 μM) for 72 hours. For DFCI58-229, DFCI127c, and DFC1362JC cells, 5000 cells were seeded per well. All experimental points included 6 to 12 wells. […] The growth curves were fitted using a nonlinear regression model with sigmoidal dose response.
(§3) Activities of representative compounds of the present application in inhibiting EGFR and HER2 were tested by MTS assay (for Ba/F3 cell, DFCI58-229 cell, and DFCI127c cells) or by CellTiter-Glot luminescent cell viability assay (for DFCI362JC cells). For assays with Ba/F3 cells, 3000 cells were seeded for per well in 96-well plates and were exposed to indicated compounds with a concentration of 3.3 to 10 μM for 72 hours. For assays with DFCI58-229 cell, DFCI127c cell, or DFCI362JC cell, 5000 cells were seeded per well in 96-well plates and were exposed to indicated compounds with a concentration of 3.3 to 10 μM for 72 hours.

[2] = target: T2, EGFR InsGY (D770delinsGY) transformed Ba/F3 cells (Homo sapiens, UniProt P00533, D770Y/INS769G); assay: Proliferation inhibition assay, EGFR InsGY transformed Ba/F3 cells; details: MTS assay, 72 hours
T2 construct: expressed in transfected cells; host or cells: Ba/F3
Method: as §1, §2, §3

[3] = target: T3, HER2 InsYVMA (A775_G776insYVMA) transformed Ba/F3 cells (Homo sapiens, UniProt P04626, INS775YVMA); assay: Proliferation inhibition assay, HER2 InsYVMA transformed Ba/F3 cells; details: MTS assay, 72 hours, Table 9 key
T3 construct: expressed in transfected cells; host or cells: Ba/F3
Method: as §1, §2, §3

[4] = target: T4, EGFR InsNPG (D770_N771insNPG) transformed Ba/F3 cells (Homo sapiens, UniProt P00533, INS770NPG); assay: Proliferation inhibition assay, EGFR InsNPG transformed Ba/F3 cells; details: MTS assay, 72 hours
T4 construct: expressed in transfected cells; host or cells: Ba/F3
Method: as §1, §2, §3

[5] = target: T5, HER2 InsVC (G776delinsVC) transformed Ba/F3 cells (Homo sapiens, UniProt P04626, G776C/INS775V); assay: Proliferation inhibition assay, HER2 InsVC transformed Ba/F3 cells; details: MTS assay, 72 hours, Table 9 key
T5 construct: expressed in transfected cells; host or cells: Ba/F3
Method: as §1, §2, §3

[6] = target: T6, HER2 InsWLV transformed Ba/F3 cells (Homo sapiens, UniProt P04626, INS773WL/M774V); assay: Proliferation inhibition assay, HER2 InsWLV transformed Ba/F3 cells; details: MTS assay, 72 hours, Table 9 key
T6 construct: expressed in transfected cells; host or cells: Ba/F3
Method: as §1, §2, §3

[7] = target: T7, wild-type EGFR transformed Ba/F3 cells (Homo sapiens, UniProt P00533); assay: Proliferation inhibition assay, wild-type EGFR transformed Ba/F3 cells; details: MTS assay, 72 hours
T7 construct: expressed in transfected cells; host or cells: Ba/F3
Method: as §1, §2, §3

[8] = target: T8, wild-type HER2 transformed Ba/F3 cells (Homo sapiens, UniProt P04626); assay: Proliferation inhibition assay, wild-type HER2 transformed Ba/F3 cells; details: MTS assay, 72 hours, Table 9 key
T8 construct: expressed in transfected cells; host or cells: Ba/F3
Method: as §1, §2, §3

[9] = target: T9, EGFR InsH transformed Ba/F3 cells (Homo sapiens, UniProt P00533, DUP773-773); assay: Proliferation inhibition assay, EGFR InsH transformed Ba/F3 cells; details: MTS assay, 72 hours
T9 construct: expressed in transfected cells; host or cells: Ba/F3
Method: as §1, §2, §3

[10] = target: T10, EGFR InsSVD (D770_N771insSVD) transformed Ba/F3 cells (Homo sapiens, UniProt P00533, INS770SVD); assay: Proliferation inhibition assay, EGFR InsSVD transformed Ba/F3 cells; details: MTS assay, 72 hours
T10 construct: expressed in transfected cells; host or cells: Ba/F3
Method: as §1, §2, §3

[11] = target: T11, EGFR InsHH (Y764_V765insHH) transformed Ba/F3 cells (Homo sapiens, UniProt P00533, INS764HH); assay: Proliferation inhibition assay, EGFR InsHH transformed Ba/F3 cells; details: MTS assay, 72 hours
T11 construct: expressed in transfected cells; host or cells: Ba/F3
Method: as §1, §2, §3

[12] = target: T12, HER2 InsGSP (P780_Y781insGSP) transformed Ba/F3 cells (Homo sapiens, UniProt P04626, INS780GSP); assay: Proliferation inhibition assay, HER2 InsGSP transformed Ba/F3 cells; details: MTS assay, 72 hours, Table 9 key
T12 construct: expressed in transfected cells; host or cells: Ba/F3
Method: as §1, §2, §3

T9 sequence (P00533 with tags, fused parts or gaps DUP773-773): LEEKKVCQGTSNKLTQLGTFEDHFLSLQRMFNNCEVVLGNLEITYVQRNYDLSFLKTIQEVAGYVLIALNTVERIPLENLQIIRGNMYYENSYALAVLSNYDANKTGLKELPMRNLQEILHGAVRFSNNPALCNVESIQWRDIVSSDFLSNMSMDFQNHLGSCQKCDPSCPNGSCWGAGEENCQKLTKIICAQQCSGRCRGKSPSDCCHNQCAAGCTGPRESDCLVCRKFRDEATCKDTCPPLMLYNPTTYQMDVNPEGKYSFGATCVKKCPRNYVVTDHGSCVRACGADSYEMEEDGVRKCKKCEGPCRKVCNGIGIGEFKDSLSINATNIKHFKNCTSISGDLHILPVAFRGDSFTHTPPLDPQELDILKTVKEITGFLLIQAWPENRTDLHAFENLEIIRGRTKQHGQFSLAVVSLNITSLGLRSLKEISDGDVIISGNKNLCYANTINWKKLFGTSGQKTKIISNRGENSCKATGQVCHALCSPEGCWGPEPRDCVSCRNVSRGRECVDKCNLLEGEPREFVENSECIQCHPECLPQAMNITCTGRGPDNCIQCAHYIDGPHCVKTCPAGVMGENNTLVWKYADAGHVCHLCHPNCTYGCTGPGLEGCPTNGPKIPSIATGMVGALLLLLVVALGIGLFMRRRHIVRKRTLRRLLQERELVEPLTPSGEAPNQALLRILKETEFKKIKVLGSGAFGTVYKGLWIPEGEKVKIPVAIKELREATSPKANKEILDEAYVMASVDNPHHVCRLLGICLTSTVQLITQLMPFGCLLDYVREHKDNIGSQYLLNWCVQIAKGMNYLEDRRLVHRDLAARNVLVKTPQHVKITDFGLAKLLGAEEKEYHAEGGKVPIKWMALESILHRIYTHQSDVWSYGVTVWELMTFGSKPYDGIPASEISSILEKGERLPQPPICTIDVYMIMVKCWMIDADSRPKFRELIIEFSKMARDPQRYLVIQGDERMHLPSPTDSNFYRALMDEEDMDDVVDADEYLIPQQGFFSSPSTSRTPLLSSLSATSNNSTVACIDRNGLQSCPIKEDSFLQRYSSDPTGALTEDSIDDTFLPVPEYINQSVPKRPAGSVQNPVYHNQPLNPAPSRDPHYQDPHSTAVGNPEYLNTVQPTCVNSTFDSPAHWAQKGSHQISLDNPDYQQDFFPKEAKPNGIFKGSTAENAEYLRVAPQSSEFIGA
T1 sequence (P00533 with tags, fused parts or gaps INS769ASV): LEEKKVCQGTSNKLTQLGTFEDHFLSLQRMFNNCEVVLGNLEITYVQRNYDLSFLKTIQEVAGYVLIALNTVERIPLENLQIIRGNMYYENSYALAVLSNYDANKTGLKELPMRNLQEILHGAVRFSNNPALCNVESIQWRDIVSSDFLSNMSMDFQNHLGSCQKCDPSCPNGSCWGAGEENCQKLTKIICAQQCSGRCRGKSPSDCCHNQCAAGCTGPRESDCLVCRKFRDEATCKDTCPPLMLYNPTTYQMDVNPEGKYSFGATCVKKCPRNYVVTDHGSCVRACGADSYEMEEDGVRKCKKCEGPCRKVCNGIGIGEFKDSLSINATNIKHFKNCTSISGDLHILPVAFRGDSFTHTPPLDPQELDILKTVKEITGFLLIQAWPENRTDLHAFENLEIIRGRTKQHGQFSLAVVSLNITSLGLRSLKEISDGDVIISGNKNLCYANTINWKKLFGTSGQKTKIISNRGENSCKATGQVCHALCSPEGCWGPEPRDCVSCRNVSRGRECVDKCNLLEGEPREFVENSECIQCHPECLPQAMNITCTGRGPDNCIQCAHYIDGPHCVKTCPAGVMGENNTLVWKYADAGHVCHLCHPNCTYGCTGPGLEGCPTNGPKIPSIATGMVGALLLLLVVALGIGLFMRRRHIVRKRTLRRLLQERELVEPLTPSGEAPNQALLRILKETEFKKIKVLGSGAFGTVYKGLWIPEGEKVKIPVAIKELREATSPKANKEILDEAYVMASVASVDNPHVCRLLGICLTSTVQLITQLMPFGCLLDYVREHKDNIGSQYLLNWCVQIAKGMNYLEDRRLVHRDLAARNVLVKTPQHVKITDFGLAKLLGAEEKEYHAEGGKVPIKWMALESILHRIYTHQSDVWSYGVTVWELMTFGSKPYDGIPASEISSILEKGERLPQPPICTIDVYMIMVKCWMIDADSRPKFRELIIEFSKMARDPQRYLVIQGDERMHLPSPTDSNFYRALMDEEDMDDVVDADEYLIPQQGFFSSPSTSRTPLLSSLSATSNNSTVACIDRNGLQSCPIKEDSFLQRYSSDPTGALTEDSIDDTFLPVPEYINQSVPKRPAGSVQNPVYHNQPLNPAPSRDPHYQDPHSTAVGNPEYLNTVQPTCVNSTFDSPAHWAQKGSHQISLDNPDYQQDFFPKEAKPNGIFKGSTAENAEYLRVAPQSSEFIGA
T10 sequence (P00533 with tags, fused parts or gaps INS770SVD): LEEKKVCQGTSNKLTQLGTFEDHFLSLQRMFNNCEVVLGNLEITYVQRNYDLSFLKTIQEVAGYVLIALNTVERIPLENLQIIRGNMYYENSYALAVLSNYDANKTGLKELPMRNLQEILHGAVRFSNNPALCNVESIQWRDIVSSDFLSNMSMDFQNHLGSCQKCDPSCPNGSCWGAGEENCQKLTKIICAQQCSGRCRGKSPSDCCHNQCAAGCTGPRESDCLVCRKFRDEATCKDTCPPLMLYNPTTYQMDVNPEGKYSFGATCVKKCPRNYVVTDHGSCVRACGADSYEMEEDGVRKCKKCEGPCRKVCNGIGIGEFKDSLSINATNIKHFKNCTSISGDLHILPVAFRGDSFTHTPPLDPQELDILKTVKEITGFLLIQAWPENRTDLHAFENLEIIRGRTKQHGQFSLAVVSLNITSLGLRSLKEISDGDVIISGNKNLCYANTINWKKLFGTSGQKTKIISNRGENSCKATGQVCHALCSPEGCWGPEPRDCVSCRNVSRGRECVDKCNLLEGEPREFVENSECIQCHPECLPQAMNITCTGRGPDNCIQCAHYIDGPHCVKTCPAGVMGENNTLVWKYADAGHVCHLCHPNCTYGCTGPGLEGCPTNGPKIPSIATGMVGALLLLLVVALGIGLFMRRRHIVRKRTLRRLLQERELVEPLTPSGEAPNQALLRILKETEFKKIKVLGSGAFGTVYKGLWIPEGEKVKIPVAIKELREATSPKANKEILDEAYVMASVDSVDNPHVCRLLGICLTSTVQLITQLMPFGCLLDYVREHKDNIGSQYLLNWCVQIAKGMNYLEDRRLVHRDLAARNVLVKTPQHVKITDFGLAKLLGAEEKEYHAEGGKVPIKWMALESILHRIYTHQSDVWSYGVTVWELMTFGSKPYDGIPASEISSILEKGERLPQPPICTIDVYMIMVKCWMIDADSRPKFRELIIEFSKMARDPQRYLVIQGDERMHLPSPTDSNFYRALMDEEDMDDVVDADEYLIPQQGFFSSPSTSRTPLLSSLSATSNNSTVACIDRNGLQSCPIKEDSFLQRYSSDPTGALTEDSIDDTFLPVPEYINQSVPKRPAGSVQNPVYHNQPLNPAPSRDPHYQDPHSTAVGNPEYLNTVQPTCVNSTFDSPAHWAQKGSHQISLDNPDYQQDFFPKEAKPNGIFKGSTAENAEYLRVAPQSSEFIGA
T12 sequence (P04626 with tags, fused parts or gaps INS780GSP): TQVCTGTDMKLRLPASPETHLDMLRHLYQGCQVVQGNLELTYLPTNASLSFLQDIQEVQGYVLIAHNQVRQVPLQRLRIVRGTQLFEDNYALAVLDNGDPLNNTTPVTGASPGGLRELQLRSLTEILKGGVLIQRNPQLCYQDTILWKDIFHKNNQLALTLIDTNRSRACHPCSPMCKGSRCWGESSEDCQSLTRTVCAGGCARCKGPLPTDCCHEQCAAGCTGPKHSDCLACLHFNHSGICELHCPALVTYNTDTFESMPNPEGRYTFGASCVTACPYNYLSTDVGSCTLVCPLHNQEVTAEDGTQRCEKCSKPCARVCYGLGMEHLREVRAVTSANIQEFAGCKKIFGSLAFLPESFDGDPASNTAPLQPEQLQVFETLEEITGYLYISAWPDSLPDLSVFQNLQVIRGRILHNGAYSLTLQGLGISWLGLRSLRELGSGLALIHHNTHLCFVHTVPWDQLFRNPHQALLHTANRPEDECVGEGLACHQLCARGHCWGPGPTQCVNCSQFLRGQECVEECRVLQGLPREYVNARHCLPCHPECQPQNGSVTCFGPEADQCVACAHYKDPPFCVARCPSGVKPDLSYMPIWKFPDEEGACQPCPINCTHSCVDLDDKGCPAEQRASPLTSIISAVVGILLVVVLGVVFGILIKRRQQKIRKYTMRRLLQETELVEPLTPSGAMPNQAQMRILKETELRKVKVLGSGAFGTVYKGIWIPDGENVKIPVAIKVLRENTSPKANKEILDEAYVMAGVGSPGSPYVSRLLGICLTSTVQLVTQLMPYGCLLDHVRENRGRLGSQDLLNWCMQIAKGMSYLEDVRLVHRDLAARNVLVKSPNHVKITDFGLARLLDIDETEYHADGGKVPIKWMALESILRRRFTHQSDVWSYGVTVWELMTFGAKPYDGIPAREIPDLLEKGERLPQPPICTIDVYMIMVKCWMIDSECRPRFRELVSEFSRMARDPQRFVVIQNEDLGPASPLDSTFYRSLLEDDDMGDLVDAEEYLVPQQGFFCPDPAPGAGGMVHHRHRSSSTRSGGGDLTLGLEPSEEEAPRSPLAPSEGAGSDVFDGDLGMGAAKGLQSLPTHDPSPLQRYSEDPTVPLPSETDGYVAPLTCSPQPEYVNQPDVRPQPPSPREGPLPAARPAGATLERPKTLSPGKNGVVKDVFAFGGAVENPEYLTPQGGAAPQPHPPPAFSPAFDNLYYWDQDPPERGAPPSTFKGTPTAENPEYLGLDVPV

| SMILES | EC50 [1] | EC50 [2] | EC50 [3] | EC50 [4] | EC50 [5] | EC50 [6] | EC50 [7] | EC50 [8] | EC50 [9] | EC50 [10] | EC50 [11] | EC50 [12] |
| --- | --- | --- | --- | --- | --- | --- | --- | --- | --- | --- | --- | --- |
| C=CC(=O)Nc1cccc(-n2c(=O)c(Oc3ccc(F)cc3F)cc3cnc(Nc4cn(C)nc4OC)nc32)c1 [Compound 4] | < 0.2 µM | < 0.2 µM | < 0.1 µM | < 0.2 µM | < 0.1 µM | < 0.1 µM | < 0.2 µM | < 0.1 µM | < 0.2 µM | < 0.2 µM | < 0.2 µM | < 0.1 µM |
| C=CC(=O)Nc1cccc(-n2c(=O)c(Oc3ccc(F)cc3F)cc3cnc(Nc4cnn(C5CCN(C)CC5)c4)nc32)c1 [Compound 3] | < 0.2 µM | < 0.2 µM | < 0.1 µM | < 0.2 µM | 0.1 to 0.25 µM | 0.1 to 0.25 µM | < 0.2 µM | < 0.1 µM | 0.2 to 0.6 µM | < 0.2 µM | 0.2 to 0.6 µM | < 0.1 µM |
| C=CC(=O)Nc1cccc(-n2c(=O)c(Oc3ccc(F)cc3F)cc3cnc(Nc4cnn(C(F)F)c4)nc32)c1 [Compound 5] | < 0.2 µM | < 0.2 µM | < 0.1 µM | < 0.2 µM | 0.1 to 0.25 µM | 0.1 to 0.25 µM | < 0.2 µM | < 0.1 µM | < 0.2 µM | < 0.2 µM | < 0.2 µM | < 0.1 µM |
| C=CC(=O)N1CCC[C@@H](n2c(=O)c(Oc3ccc(F)cc3F)cc3cnc(Nc4cnn(C)c4)nc32)C1 [Compound 15, (R)-8-(1-acryloylpiperidin-3-yl)-6-(2,4-difluorophenoxy)-2-((1-methyl-1H-pyrazol-4-yl)amino)pyrido[2,3-d]pyrimidin-7(8H)-one] | < 0.2 µM | < 0.2 µM | < 0.1 µM | < 0.2 µM | < 0.1 µM | 0.1 to 0.25 µM | < 0.2 µM | < 0.1 µM | > 1 µM | < 0.2 µM | 0.2 to 0.6 µM | < 0.1 µM |
| C=CC(=O)N1CCC[C@@H](n2c(=O)c(Oc3ccc(F)cc3F)cc3cnc(Nc4cnn(C5CCN(C)CC5)c4)nc32)C1 [Compound 17] | < 0.2 µM | < 0.2 µM | < 0.1 µM | < 0.2 µM | < 0.1 µM | 0.25 to 0.5 µM | < 0.2 µM | < 0.1 µM | 0.6 to 1 µM | < 0.2 µM | 0.2 to 0.6 µM | < 0.1 µM |

Next, values leading:

| EC50 [1] | EC50 [2] | EC50 [3] | EC50 [4] | EC50 [5] | EC50 [6] | EC50 [7] | EC50 [8] | EC50 [9] | EC50 [10] | EC50 [11] | EC50 [12] | SMILES |
| --- | --- | --- | --- | --- | --- | --- | --- | --- | --- | --- | --- | --- |
| < 0.2 µM | < 0.2 µM | > 0.5 µM | < 0.2 µM | 0.25 to 0.5 µM | 0.1 to 0.25 µM | < 0.2 µM | < 0.1 µM | > 1 µM | < 0.2 µM | 0.6 to 1 µM | < 0.1 µM | C=CC(=O)N1CCC(Cn2c(=O)c(Oc3ccc(F)cc3F)cc3cnc(Nc4cnn(C)c4)nc32)C1 (stereo not drawn) [Compound 26] |
| < 0.2 µM | < 0.2 µM | < 0.1 µM | < 0.2 µM | < 0.1 µM | 0.1 to 0.25 µM | < 0.2 µM | < 0.1 µM | 0.2 to 0.6 µM | < 0.2 µM | < 0.2 µM | < 0.1 µM | C=CC(=O)NC1CCCC(n2c(=O)c(Oc3ccc(F)cc3F)cc3cnc(Nc4cnn(C)c4)nc32)C1 (stereo not drawn) [Compound 23] |
| < 0.2 µM | < 0.2 µM | < 0.1 µM | < 0.2 µM | < 0.1 µM | 0.1 to 0.25 µM | < 0.2 µM | < 0.1 µM | 0.2 to 0.6 µM | < 0.2 µM | 0.2 to 0.6 µM | < 0.1 µM | C=CC(=O)N1CCCC(n2c(=O)c(Oc3ccc(F)cc3F)cc3cnc(Nc4cnn(C)c4)nc32)CC1 (stereo not drawn) [Compound 24] |
